Laboratory results from the CombiSolv-Exp solvation set (Vermeire and Green 2021).

Assay: solvent given as SMILES

O=c1c2ccccc2sc2ccccc12
Conditions | solvation free energy, 298 K [kJ/mol]
in C1CCOC1 | -55.1
in C1COCCO1 | -54
in CC(C)CC(C)(C)C | -44.9
in CC(C)CCO | -49.3
in CC(C)CO | -49.1
in CC(C)O | -49.9
in CC(C)OC(C)C | -48.3
in CC(C)OCCO | -51.3
in CCC(C)O | -49.3
in CCCC(=O)OC | -52.2
in CCCC(C)CO | -50
in CCCC(C)O | -49.8
in CCCCC(CC)CO | -50.1
in CCCCCC | -45.8
in CCCCCCC | -46.1
in CCCCCCCC | -46.4
in CCCCCCCCC=CCCCCCCCC(=O)OCC(COC(=O)CCCCCCCC=CCCCCCCCC)OC(=O)CCCCCCCC=CCCCCCCCC | -49.5
in CCCCCCCCCCO | -50.4
in CCCCCCCCO | -50.6
in CCCCCCCO | -50.3
in CCCCCCO | -50.2
in CCCCCO | -50
in CCCCCOC(C)=O | -52.1
in CCCCO | -49.7
in CCCCOC(C)=O | -52
in CCCCOCCCC | -48.8
in CCCCOCCO | -51.9
in CCCO | -49.5
in CCCOCCO | -51.8
in CCO | -49.7
in CCOC(C)=O | -52.3
in CCOCCO | -51.8
in CO | -48
in COC(C)(C)C | -49.9
in COC(C)=O | -52.5
in Cc1ccc(C)cc1 | -52.8
in Cc1cccc(C)c1 | -52.8
in Cc1ccccc1C | -53.2
in O | -28.9

C#CCCCCCCC
Conditions | solvation free energy, 298 K [kJ/mol]
in O | 3.1

c1ccc2c(c1)OCCOCCOCCOCCOCCO2
Conditions | solvation free energy, 298 K [kJ/mol]
in O | -74.8

CCCCCCC(C)O (stereo not given)
Conditions | solvation free energy, 298 K [kJ/mol]
in CCCCCCC | -24.5
in O | -15.8

CCc1ccccc1O
Conditions | solvation free energy, 298 K [kJ/mol]
in CCCCCC | -27.6
in O | -24.5

S=C=S
Conditions | solvation free energy, 298 K [kJ/mol]
in C1CCCC1 | -14.9
in C1COCCO1 | -12.7
in CC(C)=O | -12.8
in CC(C)CC(C)(C)C | -13.6
in CCC(C)=O | -13
in CCCCCCC | -13.9
in CCCCCCCC | -13.8
in CCCCCCCCO | -13
in CCCCCO | -13.8
in CCCCO | -12.9
in CCO | -13
in CCOC(C)=O | -13.1
in CN(C)C=O | -12.6
in Cc1ccc(C)cc1 | -14.9
in ClC(Cl)(Cl)Cl | -15.1
in ClC(Cl)=C(Cl)Cl | -14.7
in ClCCCl | -13.8
in N#Cc1ccccc1 | -13.3
in O | 0.669
in O=C1CCCCC1 | -13.8
in c1ccccc1 | -15.1

CCC(C)(O)CC
Conditions | solvation free energy, 298 K [kJ/mol]
in O | -17.6

CCCCOC(=O)c1ccccc1C(=O)OC(CC)CCCC (stereo not given)
Conditions | solvation free energy, 298 K [kJ/mol]
in O | -28.1

CCCCC(O)CC (stereo not given)
Conditions | solvation free energy, 298 K [kJ/mol]
in O | -16.5

C=C(C)C1CC=C(C)C(O)C1 (stereo not given)
Conditions | solvation free energy, 298 K [kJ/mol]
in O | -18.6

COC(=O)c1cc(OC)c(O)c(-c2cc(C(=O)OC)cc(OC)c2O)c1
Conditions | solvation free energy, 298 K [kJ/mol]
in CCC(C)=O | -87.2
in CCCO | -87.2
in ClC=CCl | -90.7
in O | -72.5

Oc1ccc(I)cc1
Conditions | solvation free energy, 298 K [kJ/mol]
in O | -31.8

CC1=CC2C(CC1)C2(C)C (stereo not given)
Conditions | solvation free energy, 298 K [kJ/mol]
in O | 3.26

[2H]O[2H]
Conditions | solvation free energy, 298 K [kJ/mol]
in C1CCCCC1 | -2.26
in CCO | -21.9
in ClC(Cl)(Cl)Cl | -4.77
in S=C=S | -3.14

c1ccc2c(c1)Oc1ccccc1O2
Conditions | solvation free energy, 298 K [kJ/mol]
in O | -13.2

CC(=O)Cc1ccccc1
Conditions | solvation free energy, 298 K [kJ/mol]
in O | -23.5

Nc1ccc(S(=O)(=O)Nc2ccnn2-c2ccccc2)cc1
Conditions | solvation free energy, 298 K [kJ/mol]
in O | -88.7

CCCCCCCC(C)O (stereo not given)
Conditions | solvation free energy, 298 K [kJ/mol]
in O | -14.9

c1ccc2c(c1)-c1cccc3cccc-2c13
Conditions | solvation free energy, 298 K [kJ/mol]
in C1COCCO1 | -54.6
in CC(=O)N(C)C | -55.4
in CC(C)CC(C)(C)C | -46.9
in CC(C)CC(C)O | -47
in CC(C)CCO | -47.1
in CC(C)CO | -46.2
in CC(C)O | -46.6
in CCC(C)(C)O | -47.5
in CCC(C)O | -47.1
in CCCC(C)CO | -47.6
in CCCC(C)O | -47.6
in CCCCC(CC)CO | -48.1
in CCCCCC | -48
in CCCCCCC | -48.4
in CCCCCCCC | -48.6
in CCCCCCCCC=CCCCCCCCC(=O)OCC(COC(=O)CCCCCCCC=CCCCCCCCC)OC(=O)CCCCCCCC=CCCCCCCCC | -51.1
in CCCCCCCCCC | -48.9
in CCCCCCCCO | -49.2
in CCCCCCCO | -49.8
in CCCCCCO | -48.9
in CCCCCO | -48.5
in CCCCCl | -53.6
in CCCCO | -47.9
in CCCCOC(C)=O | -52.9
in CCCCOCCCC | -50.5
in CCCO | -47.5
in CCO | -47.6
in CCOC(C)=O | -53
in CCOCC | -51.9
in CN(C)C=O | -55.1
in CO | -46.7
in COC(C)(C)C | -51.1
in ClC(Cl)(Cl)Cl | -52.9
in ClC(Cl)Cl | -54.6
in ClCCCl | -54.4
in O | -19.6
